From patent US9005670B2, “Use of histone acetyltransferase inhibitors as novel anti-cancer therapies” (The Johns Hopkins University, priority 2010, dated 2015)

Key:
p300 HAT [1] = molecular target: T1, p300 HAT (Homo sapiens, UniProt Q09472, DEL1529-1560/M1652G); assay: direct radioactive p300 HAT assay (14C-acetyl-CoA transfer to H4-15); format: biochemical; conditions: for weakening of p300 inhibitory potency compared with C646 (relative IC50): range of concentrations
T1 construct: A variant of the HAT domain of p300 (residues 1287 to 1652) was expressed as a fusion; a C-terminal peptide corresponding to residues 1653-1666 of p300; made in house; host or cells: E. coli BL21(RIL)-DE3; C-terminal peptide by solid phase synthesis
T1 sequence (Q09472 with tags, fused parts or gaps DEL1529-1560/M1652G limits assumed): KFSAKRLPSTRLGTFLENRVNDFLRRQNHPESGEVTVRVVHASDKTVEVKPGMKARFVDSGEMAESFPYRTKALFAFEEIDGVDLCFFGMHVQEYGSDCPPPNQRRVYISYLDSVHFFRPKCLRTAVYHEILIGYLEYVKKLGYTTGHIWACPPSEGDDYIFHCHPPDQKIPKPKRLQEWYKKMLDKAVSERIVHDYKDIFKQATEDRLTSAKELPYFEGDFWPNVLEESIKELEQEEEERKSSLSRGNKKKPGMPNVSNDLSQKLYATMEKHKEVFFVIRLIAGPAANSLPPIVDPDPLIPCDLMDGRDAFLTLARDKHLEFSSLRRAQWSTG
Method: In this assay, production of ^14C-labeled Ac-H4-15 is monitored electrophoretically. Reactions were performed in 20 mM HEPES, pH 7.9, and contained 5 mM DTT, 80 μM EDTA, 40 μg/mL BSA, 100 μM H4-15, and 5 nM p300. […] Reactions were incubated at 30° C. for 10 minutes, initiated with addition of a 1:1 mixture of 12 C-acetyl-CoA and 14 C-acetyl-CoA to a final concentration of 20 μM, and allowed to run for 10 min at 30° C. Reactions are then quenched with addition of 14% SDS (w/v). Turnover was kept below 10%. All compounds were screened in duplicate. Samples were then loaded onto a 16% Tris-Tricine gel along with a BSA standard and run at 140 V for 90 minutes. Gels were washed and dried, and exposed in a PhosphorImager cassette for ˜2 days. Bands corresponding to Ac-H4-15 were then quantified using ImageQuant.
Reactions were performed in 20 mM HEPES, pH 7.9, and contained 5 mM DTT, 80 μM EDTA, 40 μg/mL BSA, 100 μM […], and 5 nM p300. Putative inhibitors were added over a range of concentrations, with DMSO concentration kept constant (<5%). Reactions were incubated at 30° C. for 10 minutes, then initiated with addition of a 1:1 mixture of ^12C-acetyl-CoA and ^14C-acetyl-CoA to 20 μM. After […] at 30° C., reactions were quenched with 14% SDS (w/v). All concentrations were screened in duplicate. Gels were run, washed, dried, and exposed to a PhosphorImager plate as described above, and production of Ac-H4-15 quantified. Data were fit to the following equation to obtain IC50s. […]

p300 HAT [2] = molecular target: T1, p300 HAT; assay: coupled spectrophotometric p300 HAT assay; format: biochemical; conditions: for % inhibition in initial screen: compounds at 100 μM
Method: After completing the computational docking screen, the top 194 inhibitors were tested in a convenient spectrophotometric assay as described in Kim et al., Anal. Biochem. 280, 308 (2000). In the coupled spectrophotometric assay, the acetyltransferase reaction product CoASH becomes a substrate for alpha-ketoglutarate dehydrogenase, which converts NAD to NADH, resulting in an increase of UV absorbance at 340 nm. Screening conditions for these p300 HAT assays included substrate concentrations of 200 μM histone H4-15 peptide and 50 μM acetyl-CoA, and potential small molecule inhibitors tested at 100 μM. […] To distinguish inhibitory effects related to blockade of coupling enzyme rather than p300, assays were repeated using increased (2-fold) alpha-ketoglutarate dehydrogenase. […] The remaining compounds were then assessed in a protein aggregation-related inhibition assay as described in Feng et al., Nat. Chem. Biol. 1, 146 (2005). […] In this radioactive p300 HAT assay, ^14C transfer from ^14C-acetyl-CoA into peptide substrate is directly measured using Tris-Tricine SDSPAGE and phosphorimage analysis.
The top 194 p300 HAT inhibitor candidates identified by VLS were screened using a coupled spectrophotometric assay. In this assay, CoASH produced by the p300 reaction is used by α-ketoglutarate dehydrogenase (α-KGDH) to produce NADH, which can be monitored spectrophotometrically at 340 nm. Reactions were performed at 30° C. in […] HEPES, pH 7.9, and contained 200 μM H4-15, 200 μM TPP, 5 mM MgCl 2, 1 mM DTT, 50 μg/mL BSA, 200 μM NAD, 2.4 mM α-ketoglutarate, 200 μM acetyl-CoA, 0.1 units α-KGDH, and 100 nM p300. DMSO was kept at a constant 3.3%, and candidate compounds were screened at 100 μM. Reaction mixtures were incubated at 30° C. for 10 min prior to initiation. Reactions were initiated with addition of H4-15 and followed over the linear portion of the progress curve, which provides the initial velocity via linear regression. Percent inhibition was determined by comparison with velocity without candidate added. […] To ensure that compounds were not inhibiting α-KGDH instead of p300, compounds were assayed with 0.2 units of α-KGDH, two times the amount used in the initial screen. To ensure that compounds were not inhibiting through nonspecific aggregation, compounds were assayed in the presence of 0.01% Triton X-100.

| Structure (SMILES) | % inhibition in initial screen (p300 HAT [2]) [%] | further results |
| --- | --- | --- |
| CC1=NN(c2ccc(C(N)=O)cc2)C(=O)C1=Cc1ccc(-c2cc(C)c(C)cc2[N+](=O)[O-])o1 [Compound 6a, 4-(4,5-dihydro-3-methyl-4-((5-(4,5-dimethyl-2-nitrophenyl)furan-2-yl)methylene)-5-oxopyrazol-1-yl)benzamide] | – | melting point: 273 to 275 °C; p300 HAT inhibition, result in words (analogs compared with C646) (p300 HAT [1]): well tolerated |
| CC1=NN(c2ccc(C(N)=O)c(Cl)c2)C(=O)/C1=C\c1ccc(-c2cc(C)c(C)cc2[N+](=O)[O-])o1 [Compound 6b, 4-(4,5-dihydro-3-methyl-4-((5-(4,5-dimethyl-2-nitrophenyl)furan-2-yl)methylene)-5-oxopyrazol-1-yl)-2-chloro-benzamide] | – | melting point: 267 to 269 °C |
| CC1=NN(c2cccc(C(=O)O)c2)C(=O)C1=Cc1ccc(-c2cc(C)c(C)cc2[N+](=O)[O-])o1 [Compound 6e, 3-(4,5-dihydro-3-methyl-4-((5-(4,5-dimethyl-2-nitrophenyl)furan-2-yl)methylene)-5-oxopyrazol-1-yl)benzoic acid] | – | melting point: 260 to 262 °C; p300 HAT inhibition, result in words (analogs compared with C646) (p300 HAT [1]): well tolerated |
| CC1=NN(c2ccc(S(=O)(=O)O)cc2)C(=O)C1=Cc1ccc(-c2cc(C)c(C)cc2[N+](=O)[O-])o1 [Compound 6f] | – | p300 HAT inhibition, result in words (analogs compared with C646) (p300 HAT [1]): well tolerated |
| CC1=NN(c2ccc(S(N)(=O)=O)cc2)C(=O)/C1=C\c1ccc(-c2cc(C)c(C)cc2[N+](=O)[O-])o1 [Compound 6g] | – | melting point: 152 to 154 °C |
| COC(=O)c1ccc(N2N=C(C)C(=Cc3ccc(-c4cc(C)c(C)cc4[N+](=O)[O-])o3)C2=O)cc1 [Compound 6h, Methyl 4-(4,5-dihydro-3-methyl-4-((5-(4,5-dimethyl-2-nitrophenyl)furan-2-yl)methylene)-5-oxopyrazol-1-yl)benzoate] | – | melting point: 214 to 216 °C; weakening of p300 inhibitory potency compared with C646 (relative IC50) (p300 HAT [1]): > 15 fold |
| COC(=O)c1cccc(N2N=C(C)/C(=C/c3ccc(-c4cc(C)c(C)cc4[N+](=O)[O-])o3)C2=O)c1 [Compound 6i, Methyl 3-(4,5-dihydro-3-methyl-4-((5-(4,5-dimethyl-2-nitrophenyl)furan-2-yl)methylene)-5-oxopyrazol-1-yl)benzoate] | – | melting point: 205 to 207 °C; p300 HAT inhibition, result in words (analogs compared with C646) (p300 HAT [1]): well tolerated |
| CC1=NN(CCC(=O)O)C(=O)C1=Cc1ccc(-c2cc(C)c(C)cc2[N+](=O)[O-])o1 [Compound 6k, 3-(4,5-dihydro-3-methyl-4-((5-(4,5-dimethyl-2-nitrophenyl)furan-2-yl)methylene)-5-oxopyrazol-1-yl)propanoic acid] | – | melting point: 189 to 190 °C; p300 HAT inhibition, result in words (analogs compared with C646) (p300 HAT [1]): cannot successfully replace the benzoate ring of C646 and still retain p300 inhibitory potency |
| CC1=NN(c2ccc(C(=O)O)cc2)C(=O)/C1=C\c1ccc(-c2cc(C)c(C)cc2CO)o1 [Compound 6l, 4-(4,5-dihydro-4-((5-(2-(hydroxymethyl)-4,5-dimethylphenyl)-furan-2-yl)methylene)-3-methyl-5-oxopyrazol-1-yl)benzoic acid] | – | melting point: 209 to 211 °C; p300 HAT inhibition, result in words (analogs compared with C646) (p300 HAT [1]): substantial reduction in potency |
| CCOC(=O)c1cc(C)c(C)cc1-c1ccc(/C=C2\C(=O)N(c3ccc(C(=O)O)cc3)N=C2C)o1 [Compound 6n, 4-(4,5-dihydro-4-((5-(4,5-dimethyl-2-ethylbenzoate)furan-2-yl)methylene)-3-methyl-5-oxopyrazol-1-yl)benzoic acid] | – | melting point: 241 to 243 °C |
| Cc1cc(-c2ccc(C(=O)c3c(C)nn(-c4ccc(C(=O)O)cc4)c3O)o2)c([N+](=O)[O-])cc1C [Compound 6q] | – | weakening of p300 inhibitory potency compared with C646 (relative IC50) (p300 HAT [1]): 6 fold |
| COc1ccc(N2C(=O)CC(SCC(=O)O)C2=O)cc1 (stereo not shown) [Compound 5109125] | 0.0 | – |
| O=C(CSC1CC(=O)N(c2ccc(C(=O)O)cc2)C1=O)Nc1ccc(F)cc1 (stereo not shown) [Compound 5310308] | 0.0 | – |
| NC(=O)c1ccccc1NC(=O)CCC(=O)O [Compound 5317891] | 0.0 | – |
| O=C(O)CCSc1nc2ccccc2c(=O)[nH]1 [Compound 5485989] | 0.0 | – |
| COc1cccc(NC(=O)C(=O)NCCc2ccc(OC)c(OC)c2)c1 [Compound 5574003] | 0.0 | – |

| Structure (SMILES) | % inhibition in initial screen (p300 HAT [2]) [%] | further results |
| --- | --- | --- |
| COc1ccc(CCNC(=O)c2ccccc2[N+](=O)[O-])cc1OC [Compound 5693758] | 0.0 | – |
| Cc1ccc(C(=O)Nc2cccc([N+](=O)[O-])c2)cc1S(=O)(=O)Nc1cccc(C(=O)O)c1 [Compound 5913514] | 0.0 | – |
| O=C(O)c1ccc(Br)c(S(=O)(=O)Nc2ccc(NC(=O)c3ccccc3)cc2)c1 [Compound 5913665] | 0.0 | – |
| O=C(O)c1cccc(NC(=O)c2cc(S(=O)(=O)Nc3cccc([N+](=O)[O-])c3)ccc2Cl)c1 [Compound 5915900] | 0.0 | – |
| C=CCn1c(SCC(=O)O)nc2sc3c(c2c1=O)CCCC3 [Compound 5915918] | 0.0 | – |
| CC(=O)c1ccc(NS(=O)(=O)c2cccc(C(=O)Nc3cccc(C(=O)O)c3)c2)cc1 [Compound 5917216] | 38.6 | – |
| Cc1nc(SCc2ccccc2)[nH]c(=O)c1CC(=O)O [Compound 6658754] | 0.0 | – |
| O=C(O)CCC(=O)Nc1ccc(-c2nc3cc(Cl)ccc3o2)cc1 [Compound 6786461] | 66.6 | % inhibition with 2x coupling enz (p300 HAT [2]; 0.2 units α-KGDH (two times)): 100.0%; % inhibition with .01% Triton X-100 (p300 HAT [2]; aggregation control, 0.01% Triton X-100): 58.2%; % inhibition at 25 uM in radioactive assay (p300 HAT [1]; 25 uM): 0.0% |
| COc1ccc(C(CC(=O)O)c2ccc(OC)c(OC)c2)cc1OC [Compound 6971425] | 0.0 | – |
| COc1cccc(CNC(=O)C(=O)Nc2ccc(C(C)C)cc2)c1 [Compound 7076620] | 0.0 | – |
| O=C(O)CCSCC(=O)c1ccc(NS(=O)(=O)c2ccccc2)cc1 [Compound 7112743] | 0.0 | – |
| COc1ccc(S(=O)(=O)N2CCCC(C(=O)O)C2)cc1 (stereo not shown) [Compound 7185124] | 0.0 | – |
| Cc1cc(C)c(S(=O)(=O)N2CCCC(C(=O)O)C2)c(C)c1 (stereo not shown) [Compound 7188864] | 0.0 | – |
| O=C(O)C1CCCN(S(=O)(=O)c2cccs2)C1 (stereo not shown) [Compound 7195131] | 0.0 | – |
| Cc1nc(=O)c(-c2ccccc2)c(C)n1-c1ccccc1C(=O)O [Compound 7261568] | 0.0 | – |
